In patent EP1640447A1, “BIOACTIVE PEPTIDE-PRODUCING STRAINS OF i ENTEROCOCCUS FAECALIS /i , BIOACTIVE PEPTIDES AND APPLICATIONS THEREOF” (Grupo Leche Pascual S.A., priority 2003, dated 2004):
Peptide text beside a SMILES is read from it.

Molecular target: T1, Angiotensin Converting Enzyme (ACE) (Oryctolagus cuniculus, UniProt P12822)
T1 sequence (P12822 34-1310): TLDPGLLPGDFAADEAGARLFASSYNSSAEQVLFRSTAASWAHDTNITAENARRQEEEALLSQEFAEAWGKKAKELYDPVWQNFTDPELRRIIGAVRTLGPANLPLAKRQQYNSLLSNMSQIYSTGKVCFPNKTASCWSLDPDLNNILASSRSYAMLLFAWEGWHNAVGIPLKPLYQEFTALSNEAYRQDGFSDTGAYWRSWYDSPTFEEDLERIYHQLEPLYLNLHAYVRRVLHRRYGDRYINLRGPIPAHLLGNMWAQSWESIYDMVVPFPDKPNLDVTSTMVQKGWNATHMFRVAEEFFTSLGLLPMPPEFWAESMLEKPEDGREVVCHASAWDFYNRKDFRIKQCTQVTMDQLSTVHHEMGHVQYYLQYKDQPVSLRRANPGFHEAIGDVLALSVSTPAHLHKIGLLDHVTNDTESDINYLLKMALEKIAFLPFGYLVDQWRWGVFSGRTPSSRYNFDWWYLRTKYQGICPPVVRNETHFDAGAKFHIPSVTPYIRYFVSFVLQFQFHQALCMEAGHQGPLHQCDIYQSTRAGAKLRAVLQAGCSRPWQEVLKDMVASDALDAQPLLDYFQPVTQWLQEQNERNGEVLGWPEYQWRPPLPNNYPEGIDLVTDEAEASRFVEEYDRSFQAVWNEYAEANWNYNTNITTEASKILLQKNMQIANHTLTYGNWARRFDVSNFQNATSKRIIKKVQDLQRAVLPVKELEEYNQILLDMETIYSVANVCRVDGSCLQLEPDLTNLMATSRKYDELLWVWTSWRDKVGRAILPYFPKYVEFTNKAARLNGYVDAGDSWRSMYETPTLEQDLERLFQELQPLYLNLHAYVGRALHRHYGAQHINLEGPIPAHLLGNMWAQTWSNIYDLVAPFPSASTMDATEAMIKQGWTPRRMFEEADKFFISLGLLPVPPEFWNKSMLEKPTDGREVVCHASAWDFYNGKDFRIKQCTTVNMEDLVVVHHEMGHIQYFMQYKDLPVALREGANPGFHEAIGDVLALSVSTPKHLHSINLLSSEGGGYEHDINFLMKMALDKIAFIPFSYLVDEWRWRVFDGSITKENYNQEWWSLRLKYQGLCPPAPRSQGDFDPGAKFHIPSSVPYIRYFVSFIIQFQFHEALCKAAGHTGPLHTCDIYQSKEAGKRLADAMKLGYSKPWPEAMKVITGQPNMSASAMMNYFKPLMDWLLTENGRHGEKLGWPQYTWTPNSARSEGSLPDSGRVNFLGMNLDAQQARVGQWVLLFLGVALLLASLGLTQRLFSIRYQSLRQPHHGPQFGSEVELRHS
Test: Measurement of ACE inhibitor activity (ACEI activity), Hip-His-Leu substrate, hippuric acid read at 228 nm
Format: biochemical
Conditions: chemically synthesized peptides, Table 4
Procedure: The measurement of ACE activity was performed according to the method disclosed by Cushman and Cheung (Cushman DW, Cheung HS. 1971. Biochem Pharmacol 20:1637-1648) and subsequently modified by Nakamura (Nakamura Y, Yamamoto N, Sakai K et al. 1995. J Dairy Sci 78:777-783). This method is based on the use of Hippuryl-L-Histidyl-L-Leucine (Hip-His-Leu) as substrate given that the action of the ACE on such substrate produced the release of hippuric acid, easily quantifiable by spectrophotometry by absorbance reading at 228 nm (A228) after extraction thereof with ethyl acetate. If the sample to be tested is added to the reaction tube along with the ACE and the substrate, the ACEI activity of the sample tested can be determined. As is mentioned in Example 1.1, during the selection of bacteria the sample used to measure ACEI activity was the supernatant of the fermented milk, subjected to centrifugation at 20,000 x g for 10 minutes and subsequently diluted to half with distilled water.
The substrate solution was formed by 0.1 M sodium borate, 300 mM sodium chloride, 5 mM Hip-His-Leu (Sigma, St. Louis, MO), pH 8.3 at 37°C. The ACE enzyme solution (Sigma, St. Louis, MO) was adjusted to an activity of 0.1 U/mL.
The different reaction mixtures were incubated for 30 minutes at 37°C and subsequently 150 µL of 1 M hydrochloric acid were added in order to stop the reaction and subsequently 1,000 µL, of ethyl acetate in order to extract the hippuric acid. The resulting mixtures were vigorously stirred for 20 seconds and centrifuged at 1,500 x g for 10 minutes in order to separate and collect from each tube the upper phase (ethyl acetate). 750 µL of each upper phase were pipetted into individual tubes, which were introduced in a bath of boiling water under a fume extraction hood until the solvent evaporated. Once the ethyl acetate was eliminated 800 µL of distilled water were added to each tube to dissolve the dry residue smoothly and without stirring. Finally the content of each tube was transferred to quartz cuvettes to read their absorbance at 228 nm. The inhibition percentage (% Inhibition) was calculated by applying the following formula: %Inhibition = ((A)−(B))/((C)−(D)) [formula] wherein (A), (B), (C) and (D) correspond to the absorbances at 228 nm of the solutions indicated in Table 2.
To perform this fermentation example, E. faecalis CECT 5727, E. faecalis CECT 5728, E. faecalis CECT 5826 or E faecalis CECT 5827 may be used indistinctly. The substrate is skimmed bovine milk powder reconstituted in water at 10% and autoclaved ([…] for 20 minutes). First a starter liquid was made, inoculating the substrate with a culture loop such that the initial population was 10^5-10^7 CFU/mL and incubating for 24 hours. 3% by weight of this culture was used as inoculum for the second fermentation which was maintained for 48 hours. Both fermentations were carried out at 30°C. The fermenting process was stopped by pasteurizing the fermented milk [75°C for 1 minute] and the final pasteurized product was used to measure ACEI activity according to the protocol described in Example 1.2, although in this case the fermented milks were subjected to the pasteurization treatment mentioned before being centrifuged at 20,000 x g for 10 minutes. […] Therefore, the final reaction volume is always 160 µL [100 µL of the substrate solution, 20 µL of the ACE solution and 40 µL of the sample to be tested (supernatant at the corresponding dilution with distilled water)].

Row | Structure (SMILES) | IC50 [µM]
1 | CC(C)C[C@H](NC(=O)[C@@H]1CCCN1C(=O)[C@H](CC(C)C)NC(=O)[C@H](Cc1cnc[nH]1)NC(=O)[C@@H](N)CC(C)C)C(=O)N1CCC[C@H]1C(=O)O [SEQ. ID. NO: 1, LHLPLP] (H-LHLPLP-OH) | 5.4
2 | CC(C)C[C@H](NC(=O)[C@@H](N)C(C)C)C(=O)NCC(=O)N1CCC[C@H]1C(=O)N[C@H](C(=O)N[C@@H](CCCNC(=N)N)C(=O)NCC(=O)N1CCC[C@H]1C(=O)N[C@@H](Cc1ccccc1)C(=O)N1CCC[C@H]1C(=O)O)C(C)C [SEQ. ID. NO: 2, VLGPVRGPFP] (H-VLGPVRGPFP-OH) | 137
3 | CC(C)C[C@H](NC(=O)[C@@H]1CCCN1C(=O)[C@H](CC(C)C)NC(=O)[C@@H]1CCCN1C(=O)[C@H](CC(C)C)NC(=O)[C@H](Cc1c[nH]cn1)NC(=O)[C@@H](N)CC(C)C)C(=O)O [SEQ. ID. NO: 3, LHLPLPL] (H-LHLPLPL-OH) | 433
4 | CC[C@H](C)[C@H](NC(=O)[C@@H](NC(=O)[C@@H]1CCCN1C(=O)[C@H](Cc1ccccc1)NC(=O)[C@@H]1CCCN1C(=O)CNC(=O)[C@H](CCCNC(=N)N)NC(=O)[C@@H](N)C(C)C)[C@@H](C)CC)C(=O)N[C@H](C(=O)O)C(C)C [SEQ. ID. NO: 4, VRGPFPIIV] (H-VRGPFPIIV-OH) | 630
5 | CC(C)[C@H](N)C(=O)N[C@H](C(=O)N[C@H](C(=O)N1CCC[C@H]1C(=O)N1CCC[C@H]1C(=O)N[C@@H](Cc1ccccc1)C(=O)O)C(C)C)C(C)C [SEQ. ID. NO: 5, VVVPPF] (H-VVVPPF-OH) | > 700
6 | CC(C)C[C@H](N)C(=O)N[C@H](C(=O)N[C@@H](CCC(N)=O)C(=O)N[C@H](C(=O)N1CCC[C@H]1C(=O)N[C@H](C(=O)N[C@H](C(=O)N[C@H](C(=O)N1CCC[C@H]1C(=O)N1CCC[C@H]1C(=O)N[C@@H](Cc1ccccc1)C(=O)O)C(C)C)C(C)C)C(C)C)[C@@H](C)O)[C@@H](C)O [SEQ. ID. NO: 6, LTQTPVVVPPF] (H-LTQTPVVVPPF-OH) | > 700
7 | CC[C@H](C)[C@H](NC(=O)[C@@H](NC(=O)[C@@H]1CCCN1C(=O)[C@H](Cc1ccccc1)NC(=O)[C@@H]1CCCN1C(=O)CNC(=O)[C@H](CCCNC(=N)N)NC(=O)[C@@H](NC(=O)[C@@H]1CCCN1C(=O)CNC(=O)[C@H](CC(C)C)NC(=O)[C@@H](N)C(C)C)C(C)C)[C@@H](C)CC)C(=O)N[C@H](C(=O)O)C(C)C [SEQ. ID. NO: 7, VLGPVRGPFPIIV] (H-VLGPVRGPFPIIV-OH) | > 700
8 | CC[C@H](C)[C@H](NC(=O)[C@@H]1CCCN1C(=O)CNC(=O)[C@@H]1CCCN1C(=O)[C@H](Cc1ccccc1)NC(=O)[C@@H]1CCCN1C(=O)[C@H](Cc1ccc(O)cc1)NC(=O)[C@@H](NC(=O)[C@@H](N)CC(C)C)C(C)C)C(=O)N1CCC[C@H]1C(=O)N[C@@H](CC(N)=O)C(=O)N[C@@H](CO)C(=O)N[C@@H](CC(C)C)C(=O)N1CCC[C@H]1C(=O)N[C@@H](CCC(N)=O)C(=O)N[C@@H](CC(N)=O)C(=O)N[C@H](C(=O)N1CCC[C@H]1C(=O)N1CCC[C@H]1C(=O)O)[C@@H](C)CC [SEQ. ID. NO: 8, LVYPFPGPIPNSLPQNIPP] (H-LVYPFPGPIPNSLPQNIPP-OH) | 5.3
